# Measurements: BindingDB's records for doi:10.3109/14756366.2011.643304 (Umeå University, 2013)
# Target: T1, Fatty-acid amide hydrolase 1 [30-579] (Rattus norvegicus, UniProt P97612)
# T1 construct: 30-579
# T1 sequence (P97612 whole entry): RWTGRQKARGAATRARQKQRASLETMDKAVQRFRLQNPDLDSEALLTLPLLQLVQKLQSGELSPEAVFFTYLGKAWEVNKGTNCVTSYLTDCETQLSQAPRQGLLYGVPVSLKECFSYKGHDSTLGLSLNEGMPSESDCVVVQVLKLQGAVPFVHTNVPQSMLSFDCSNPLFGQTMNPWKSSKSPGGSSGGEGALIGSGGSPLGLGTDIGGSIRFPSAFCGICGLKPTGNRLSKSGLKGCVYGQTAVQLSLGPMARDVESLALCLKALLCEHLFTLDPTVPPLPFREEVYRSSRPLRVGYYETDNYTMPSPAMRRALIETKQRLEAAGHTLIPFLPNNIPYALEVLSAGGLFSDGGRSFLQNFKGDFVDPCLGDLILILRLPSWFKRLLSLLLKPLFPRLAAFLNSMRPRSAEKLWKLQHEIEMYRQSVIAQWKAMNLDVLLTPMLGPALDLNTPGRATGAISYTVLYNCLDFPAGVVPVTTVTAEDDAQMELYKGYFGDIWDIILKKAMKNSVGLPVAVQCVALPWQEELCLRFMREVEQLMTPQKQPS
# Experiment: FAAH Assay
# Conditions: pH 7; 4 °C
# Experimental: Frozen (−80 °C) brains (minus cerebella) from adult Wistar or Sprague-Dawley rats were thawed and homogenized in 20 mM HEPES, 1 mM MgCl2, pH 7.0. and thereafter centrifuged at ~35000 × g for 20 min at 4°C. […] After a further centrifugation, the pellets were resuspended in 50 mMTris-HCl buffer, pH 7.4, containing 1 mM EDTA and 3 mM MgCl2 and frozen at −80°C in aliquots until used for assay. […] Reactions were stopped by placing the tubes on ice. Final assay concentrations of the solvents used for the compounds (ethanol or DMSO) were in the range 1-5%. Activated charcoal (80 μL + 320 μL 0.5 M HCl) was added and the samples were mixed and left at room temperature for about 30 min. Following centrifugation at 2500 rpm for 10 min, aliquots (200 μL) of the supernatants were analyzed for tritium content by liquid scintillation spectroscopy with quench correction. Blank values were obtained by the use of buffer rather than homogenate.
row,Compound,IC50
1,Cc1cccnc1OC(=O)C(C)c1ccc(CC(C)C)cc1 (configuration not stated) [3-Methylpyridin-2-yl 2-(4-isobutylphenyl)propanoate (3)],115 µM
2,Cc1cccc(NC(=O)CNC(=O)C(C)c2ccc(CC(C)C)cc2)n1 (configuration not stated) [2-(4-Isobutylphenyl)-N-(2-(6-methylpyridin-2-ylamino)-2-oxoethyl)propanamide (10)],150 µM
3,CC(C)Cc1ccc(C(C)C(=O)NCC(=O)NCc2ccccn2)cc1 (configuration not stated) [2-(4-Isobutylphenyl)-N-(2-oxo-2-(pyridin-2-ylmethylamino)ethyl)propanamide (12)],90 µM
4,CC(C)Cc1ccc(C(C)C(=O)NCC(=O)NCc2cccnc2)cc1 (configuration not stated) [2-(4-Isobutylphenyl)-N-(2-oxo-2-(pyridin-3-ylmethylamino)ethyl)propanamide (13)],37 µM
5,Cc1cccnc1NC(=O)C(C)c1ccc(CC(C)C)cc1 (configuration not stated) [2-(4-isobutylphenyl)-N-(3-methylpyridin-2-yl)propanamide],0.65 µM
6,Cc1cccnc1NC(=O)CCNC(=O)C(C)c1ccc(CC(C)C)cc1 (configuration not stated) [2-(4-Isobutylphenyl)-N-(3-(3-methylpyridin-2-ylamino)-3-oxopropyl)propanamide (11)],9.3 µM
7,CC(=O)Nc1ccc(OC(=O)CNC(=O)C(C)c2ccc(CC(C)C)cc2)cc1 (configuration not stated) [4-Acetamidophenyl 2-(2-(4-isobutylphenyl)propanamido)acetate (8)],1.5 µM
